Literature values as cited in patent US20250152551A1, “DOCETAXEL COMPOSITIONS AND METHODS” (ZHUHAI BEIHAI BIOTECH CO., LTD., priority 2022, published 2025).

How the values were obtained:
[1] = test system: microtubule depolymerization

Solubility in water: practically insoluble in water
SMILES: CC(=O)O[C@@]12CO[C@@H]1C[C@H](O)[C@@]1(C)C(=O)[C@H](O)C3=C(C)[C@@H](OC(=O)[C@H](O)[C@@H](NC(=O)OC(C)(C)C)c4ccccc4)C[C@@](O)([C@@H](OC(=O)c4ccccc4)[C@H]21)C3(C)C [docetaxel]
Potency in inhibiting microtubule depolymerization relative to paclitaxel [1]: about twice as potent as paclitaxel
